{"source": "patent US20170232083A1", "about": "“METHODS OF DIAGNOSIS AND TREATMENT OF CELIAC DISEASE IN CHILDREN” (priority 2014, published 2017)", "test_system": "peripheral blood mononuclear cells obtained from children", "experiment": "IFNγ ELISpot PBMC assay after oral wheat bread challenge (Examples 1-2)", "type": "cell-based, human", "method": "An oral wheat bread challenge was conducted in DQ2.5+ children and adolescents having Celiac disease. The age ranges were 3-5, 6-10 and 11-18 years of age. An ELISpot peripheral blood mononucleated cell (PBMC) assay was performed to measure the level of IFNγ released by the PBMCs after being contacted with peptide 1, peptide 2, peptide 3, or a combination thereof. The identities of peptides 1, 2, and 3 are shown below.\nThe values the rows starting from “Blank (SFU)” and ending at “Pept-1/2/3 (150)” are all spot forming unit (SFU) values. The values in the parentheses in the first column are the concentration of each peptide in micrograms that were added to the PBMCs (e.g., Pept-1 50=50 micrograms of Peptide 1, Pept-1/2/3 50=50 micrograms of each of Peptide 1, Peptide 2, and Peptide 3). Pept-1=Peptide 1, Pept-2=Peptide 2, Pept-3=Peptide 3, the amino acid identities of which are mentioned above. D-Gli=deamidated gliadin. WT-Gli=wild-type gliadin. D-Glut=deamidated gluten. WT-Glut=wild-type gluten.\nIFNγ ELISpot responses in 9 older children (11-17 yo) and 6 younger children (3-10 yo) were stimulated by the mixture of peptides 1, 2, and 3 described in Example 1 (each peptide at a concentration of 25 ug/mL) or stimulated by deamidated gliadin (100 ug/mL) after 3-day wheat challenge (r2=0.8, p<0.0001). The ELISpot responses were similar using either the peptide mixture of the deamidated gliadin (FIG. 1).", "note": "Several values for one entry are separate records, joined by “and”; a condition that tells them apart may be missing. Identical values can stand only once. Non-standard residues stand in square brackets, D forms with d. pGlu = O=C1CC[C@@H](C(=O)O)N1", "data": [{"sequence": "EPEQPIPEQPQPYPQQ ([pGlu]PEQPIPEQPQPYPQQ-NH2; SMILES CC[C@H](C)[C@H](NC(=O)[C@@H]1CCCN1C(=O)[C@H](CCC(N)=O)NC(=O)[C@H](CCC(=O)O)NC(=O)[C@@H]1CCCN1C(=O)[C@@H]1CCC(=O)N1)C(=O)N1CCC[C@H]1C(=O)N[C@@H](CCC(=O)O)C(=O)N[C@@H](CCC(N)=O)C(=O)N1CCC[C@H]1C(=O)N[C@@H](CCC(N)=O)C(=O)N1CCC[C@H]1C(=O)N[C@@H](Cc1ccc(O)cc1)C(=O)N1CCC[C@H]1C(=O)N[C@@H](CCC(N)=O)C(=O)N[C@@H](CCC(N)=O)C(N)=O) [Peptide 3]", "values": [{"measurement": "SFU, IFNγ ELISpot", "setting": "Subject A, 5.0 × 10^5 cells per well, 50 micrograms", "value": 0, "unit": "SFU"}, {"measurement": "SFU, IFNγ ELISpot", "setting": "Subject C, 5.0 × 10^5 cells per well, 50 micrograms", "value": 3, "unit": "SFU"}, {"measurement": "SFU, IFNγ ELISpot", "setting": "Subject D, 4.0 × 10^5 cells per well, 25 micrograms, listed as Pept-3", "value": "2 SFU and 4 SFU"}, {"measurement": "SFU, IFNγ ELISpot", "setting": "Subject D, 4.0 × 10^5 cells per well, 50 micrograms", "value": 2, "unit": "SFU"}, {"measurement": "SFU, IFNγ ELISpot", "setting": "Subject D, 4.0 × 10^5 cells per well, 100 micrograms, listed as Pept-3", "value": "2 SFU and 4 SFU"}, {"measurement": "SFU, IFNγ ELISpot", "setting": "Subject E, 5.0 × 10^5 cells per well, 25 micrograms", "value": 3, "unit": "SFU"}, {"measurement": "SFU, IFNγ ELISpot", "setting": "Subject E, 5.0 × 10^5 cells per well, 50 micrograms", "value": 6, "unit": "SFU"}, {"measurement": "SFU, IFNγ ELISpot", "setting": "Subject E, 5.0 × 10^5 cells per well, 100 micrograms, listed as Pept-3", "value": "3 SFU and 4 SFU"}, {"measurement": "SFU, IFNγ ELISpot", "setting": "Subject G, 4.0 × 10^5 cells per well, 25 micrograms", "value": 0, "unit": "SFU"}, {"measurement": "SFU, IFNγ ELISpot", "setting": "Subject H, 3.5 × 10^5 cells per well, 25 micrograms, listed as Pept-3", "value": "1 SFU and 2 SFU"}, {"measurement": "SFU, IFNγ ELISpot", "setting": "Subject H, 3.5 × 10^5 cells per well, 50 micrograms, listed as Pept-3", "value": "2 SFU and 4 SFU"}, {"measurement": "SFU, IFNγ ELISpot", "setting": "Subject I, 5.0 × 10^5 cells per well, 50 micrograms", "value": 1, "unit": "SFU"}, {"measurement": "SFU, IFNγ ELISpot", "setting": "Subject J, 5.0 × 10^5 cells per well, 25 micrograms, listed as Pept-3", "value": "4 SFU and 2 SFU"}, {"measurement": "SFU, IFNγ ELISpot", "setting": "Subject J, 5.0 × 10^5 cells per well, 50 micrograms, listed as Pept-3", "value": "2 SFU and 3 SFU"}, {"measurement": "SFU, IFNγ ELISpot", "setting": "Subject J, 5.0 × 10^5 cells per well, 100 micrograms, listed as Pept-3", "value": "1 SFU and 2 SFU"}, {"measurement": "SFU, IFNγ ELISpot", "setting": "Subject K, 3.2 × 10^5 cells per well, 25 micrograms, listed as Pept-3", "value": "2 SFU and 3 SFU"}, {"measurement": "SFU, IFNγ ELISpot", "setting": "Subject K, 3.2 × 10^5 cells per well, 50 micrograms, listed as Pept-3", "value": "2 SFU and 1 SFU"}, {"measurement": "SFU, IFNγ ELISpot", "setting": "Subject L, 3.5 × 10^5 cells per well, 25 micrograms", "value": 1, "unit": "SFU"}, {"measurement": "SFU, IFNγ ELISpot", "setting": "Subject M, 2.3 × 10^5 cells per well, 25 micrograms", "value": 0, "unit": "SFU"}, {"measurement": "SFU, IFNγ ELISpot", "setting": "Subject M, 2.3 × 10^5 cells per well, 100 micrograms", "value": 0, "unit": "SFU"}, {"measurement": "SFU, IFNγ ELISpot", "setting": "Subject N, 2.4 × 10^5 cells per well, 50 micrograms, listed as Pept-3", "value": "2 SFU and 1 SFU"}, {"measurement": "SFU, IFNγ ELISpot", "setting": "Subject N, 2.4 × 10^5 cells per well, 100 micrograms", "value": 0, "unit": "SFU"}, {"measurement": "SFU, IFNγ ELISpot", "setting": "Subject P, 3.0 × 10^5 cells per well, 50 micrograms, listed as Pept-3", "value": "8 SFU and 6 SFU"}, {"measurement": "SFU, IFNγ ELISpot", "setting": "Subject Q, 3.0 × 10^5 cells per well, 50 micrograms, listed as Pept-3", "value": "1 SFU and 2 SFU"}, {"measurement": "SFU, IFNγ ELISpot", "setting": "Subject R, 3.0 × 10^5 cells per well, 50 micrograms, listed as Pept-3", "value": "12 SFU and 9 SFU"}, {"measurement": "SFU, IFNγ ELISpot", "setting": "Subject W, 3.0 × 10^5 cells per well, 50 micrograms", "value": 8, "unit": "SFU"}, {"measurement": "SFU, IFNγ ELISpot", "setting": "Subject Y, 2.29 × 10^5 cells per well, 50 micrograms", "value": 3, "unit": "SFU"}, {"measurement": "T cell response in PBMC samples from children after gluten challenge", "setting": "general increase in SFU in each child, Tables 2-5", "value": "induce a T cell response"}]}]}
